In brackets after ≈: the same amount, converted by molar mass. Like-named read-outs stand apart in the source and are kept apart here.
Columns and labels:
[1] = system: enzymes in the cholesterol biosynthetic pathway; settings: cited from earlier work
[2] = molecular target: T1, porcine pancreatic lipase (PL) (Sus scrofa, UniProt P00591); experiment: Pancreatic lipase inhibition assay (p-NPB hydrolysis); type: biochemical
T1 sequence (P00591 1-450): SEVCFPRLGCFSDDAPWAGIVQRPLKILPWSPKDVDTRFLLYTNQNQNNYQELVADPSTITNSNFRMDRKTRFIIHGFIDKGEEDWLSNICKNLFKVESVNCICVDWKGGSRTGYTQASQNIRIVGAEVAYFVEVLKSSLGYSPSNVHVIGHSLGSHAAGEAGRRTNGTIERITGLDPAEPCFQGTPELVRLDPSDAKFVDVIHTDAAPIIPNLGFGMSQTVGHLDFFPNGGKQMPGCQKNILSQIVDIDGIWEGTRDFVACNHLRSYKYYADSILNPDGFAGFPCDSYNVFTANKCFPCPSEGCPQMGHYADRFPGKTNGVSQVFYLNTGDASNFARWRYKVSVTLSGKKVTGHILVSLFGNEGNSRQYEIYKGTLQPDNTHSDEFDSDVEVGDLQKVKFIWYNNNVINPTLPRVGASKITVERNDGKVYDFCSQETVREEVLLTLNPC
Description: The ability of the different parts of crude extracts to inhibit PL was measured as described previously, with slight modifications. Briefly, an enzyme buffer was prepared by the addition of 30 μL (10 units) of PL solution (in 10 mM MOPS and 1 mM EDTA, pH 6.8) to 850 μL of Tris buffer (100 mM Tris-HCl and 5 mM CaCl2, pH 7.0). […] The reaction was allowed to proceed for 15 min at 37 °C after addition of 20 μL of the substrate solution (10 mM p-NPB in dimethyl formamide). The lipase activity was determined by measuring the hydrolysis of p-NPB to p-nitrophenol at 400 nm using microplate reader. Inhibition of the lipase activity was expressed as the percentage decrease in the OD when PL was incubated with the test compounds.

[3] = molecular target: T2, 15-Lipoxygenase from soybean (15-LO) (Glycine max, UniProt P08170); experiment: 15-Lipoxygenase inhibition assay (linoleic acid substrate); type: biochemical
T2 construct: purchased Cayman Chemical Company
T2 sequence (P08170 whole entry): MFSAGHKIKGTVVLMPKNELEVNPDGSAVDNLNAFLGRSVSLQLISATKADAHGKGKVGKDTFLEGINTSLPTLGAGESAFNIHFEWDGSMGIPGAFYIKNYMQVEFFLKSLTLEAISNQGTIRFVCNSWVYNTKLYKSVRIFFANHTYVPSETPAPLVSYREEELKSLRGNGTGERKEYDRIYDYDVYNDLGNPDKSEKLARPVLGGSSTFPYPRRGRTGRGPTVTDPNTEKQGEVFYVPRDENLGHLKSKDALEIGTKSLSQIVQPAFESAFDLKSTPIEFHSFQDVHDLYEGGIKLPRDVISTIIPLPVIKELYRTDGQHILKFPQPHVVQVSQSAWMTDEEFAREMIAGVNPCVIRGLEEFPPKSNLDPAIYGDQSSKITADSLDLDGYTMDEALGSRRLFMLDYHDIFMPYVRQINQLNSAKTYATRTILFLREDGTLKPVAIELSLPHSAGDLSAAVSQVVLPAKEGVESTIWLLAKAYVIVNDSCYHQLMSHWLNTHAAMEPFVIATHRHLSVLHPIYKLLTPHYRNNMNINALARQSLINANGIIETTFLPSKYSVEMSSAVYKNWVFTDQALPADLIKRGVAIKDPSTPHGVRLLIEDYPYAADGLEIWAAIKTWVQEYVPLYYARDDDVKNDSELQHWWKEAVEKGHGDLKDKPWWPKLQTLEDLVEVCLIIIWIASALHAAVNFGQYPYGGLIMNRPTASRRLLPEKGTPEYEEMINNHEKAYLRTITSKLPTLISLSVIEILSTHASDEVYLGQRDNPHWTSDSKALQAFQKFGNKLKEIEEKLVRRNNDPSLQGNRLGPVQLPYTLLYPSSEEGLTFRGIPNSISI
Description: The final enzyme concentration was 500 units/mL and the test samples were dissolved in DMSO solutions. All measurements were carried out at least twice, in each instance using caffeic and ferulic acids, a well-known inhibitor of 15-LO, as positive controls.

[4] = system: low-density lipoprotein cholesterol from human plasma (LDL); experiment: LDL oxidation inhibition assay (CuSO4-induced, TBARS); type: biochemical; settings: copper-induced LDL oxidation, n = 3
Description: The oxidation of LDL was investigated as described by Rattan and Arad. […] The reaction was stopped by adding 50 μL of 1 M EDTA and placing the sample at −20 °C for TBA reactive substance (TBARS) assay. The generation of malonyldialdehyde (MDA) equivalents during LDL oxidation was estimated by the TBARS assay using the method of Steinbrecher et al.. LDL oxidation was carried out as described above. After oxidation, LDL was mixed with 1.5 mL of 0.67% TBA and 1.5 mL of 20% TCA. After placing samples in boiling water (100 °C) for 30 min, the reaction product was kept for 30 min at 25 °C and centrifuged for 15 min at 4 °C. The supernatants were read on a spectrophotometer at 532 nm, blank containing 220 μg/mL LDL only. The yields of MDA were used as a standard and the results were expressed as nanomoles of MDA equivalents.

[5] = system: human cancer cell line; set-up: method as in PMID 19382453; settings: cited from earlier work
[6] = system: rat hepatic stellate cells; set-up: method as in PMID 15787259; settings: cited from earlier work
[7] = system: accelerated atherosclerosis in native hearts; set-up: method as in PMID 8419015; settings: native hearts of a rabbit heart transplant model; cited from earlier work
[8] = normal human; cited from earlier work
[9] = molecular target: tyrosinase mushroom (Agaricus bisporus, UniProt C7FF04); experiment: Anti-tyrosinase activity assay; type: biochemical; settings: n = 3
Chain of tyrosinase mushroom (C7FF04 1-392): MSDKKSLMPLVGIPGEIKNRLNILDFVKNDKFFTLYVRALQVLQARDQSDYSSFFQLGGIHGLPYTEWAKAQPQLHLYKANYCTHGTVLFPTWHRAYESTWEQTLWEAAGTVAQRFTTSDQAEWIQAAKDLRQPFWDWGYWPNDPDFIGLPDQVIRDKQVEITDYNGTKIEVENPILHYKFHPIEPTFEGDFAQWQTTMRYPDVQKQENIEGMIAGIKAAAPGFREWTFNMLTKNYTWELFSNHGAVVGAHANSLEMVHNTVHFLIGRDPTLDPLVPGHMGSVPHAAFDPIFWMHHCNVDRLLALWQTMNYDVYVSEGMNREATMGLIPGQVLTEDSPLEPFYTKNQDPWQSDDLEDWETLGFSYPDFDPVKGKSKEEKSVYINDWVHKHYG
Description: Tyrosinase activity inhibition was determined by the method as described previously [29]. In brief, sample extracts were dissolved in methanol to make the different concentrations (μg/mL). The 96-well plate was set up in the following order; 120 μL of phosphate buffer (20 mM, pH 6.8), 20 μL of sample and 20 μL of tyrosinase mushroom (500 units/mL in 20 mM phosphate buffer). After incubation at 25 °C for 15 min, reaction was initiated by adding 20 μL of 0.85 mM L-tyrosine solution to each well. The enzyme activity was determined by measuring the absorbance at 470 nm using microplate reader (BioRad, Benchmark microplate reader, Hertfordshire, UK). […] The percentage of tyrosinase inhibition was calculated as follows:
where, A = absorbance of the control with enzyme; B = absorbance of the control without enzyme; C = absorbance of the test sample with enzyme; D = absorbance of the test sample without enzyme.

[10] = n = 3, read-out: IC50 pancreatic lipase (PL) inhibition (converted)
[11] = n = 3, read-out: IC50 15-LO inhibition (converted)

For `CC(C)[C@H](C)CC[C@@H](C)[C@H]1CC[C@H]2[C@@H]3CC=C4C[C@@H](O)CC[C@]4(C)[C@H]3CC[C@]12C` [campesterol], the “inhibition of enzymes in the cholesterol biosynthetic pathway / cholesterol biosynthesis” value [1] is given as “could not inhibit”, the IC50 [2] is given as 323 µM and the IC50 [3] is given as 361 µM. For the same molecule, the “IC50 LDL oxidation inhibition” value [4] was 149.02 ± 1.93 µg/mL (≈ 372 µM).
With `CC(C)CCC[C@@H](C)[C@H]1CC[C@H]2[C@@H]3CC(=O)C4=CC(=O)CC[C@]4(C)[C@H]3CC[C@]12C` [cholest-4-ene-3,6-dione] the IC50 [2, 10] was 48.9 µM, the IC50 [3, 11] was 85.8 µM and the “IC50 LDL oxidation inhibition” value [4] was 16.12 ± 1.43 µg/mL (≈ 40.4 µM). The “cytotoxic activity against human cancer cell line” value [5] was “cytotoxic activity” and the “inhibitory activity on proliferation of rat hepatic stellate cells” value [6] was “inhibitory activity”.
For `C[C@]12CC[C@H](O)CC1=CC[C@@H]1[C@@H]2CC[C@]2(C)C(=O)CC[C@@H]12` [dehydroepiandrosterone, 3β-hydroxy-5-androsten-17-one], the “effect on development of accelerated atherosclerosis” value [7] is given as “inhibited the development of accelerated atherosclerosis” and the “effect on serum LDL level” value [8] is given as “reduce serum LDL level”.
For `COc1cc(/C=C/C(=O)O)ccc1O` [ferulic acid, reference compound], the “IC50 15-LO inhibition” value ([3]; n = 3) was 54.79 ± 1.12 µg/mL (≈ 282 µM).
For `O=c1c(O)c(-c2ccc(O)c(O)c2)oc2cc(O)cc(O)c12` [quercetin, reference compound], the “IC50 LDL oxidation inhibition” value [4] was 22.56 ± 0.70 µg/mL (≈ 74.6 µM).
For `CC[C@H](CC[C@@H](C)[C@H]1CC[C@H]2[C@@H]3CC=C4C[C@@H](O)CC[C@]4(C)[C@H]3CC[C@]12C)C(C)C` [sitosterol], the IC50 tyrosinase inhibition [9] is listed as 187.77 ± 0.04 µg/mL (≈ 453 µM), the “inhibition of enzymes in the cholesterol biosynthetic pathway / cholesterol biosynthesis” value [1] is listed as “could not inhibit” and the “IC50 pancreatic lipase (PL) inhibition” value ([2]; n = 3) is listed as 99.99 ± 1.86 µg/mL (≈ 241 µM). The “IC50 15-LO inhibition” value ([3]; n = 3) was 123.34 ± 1.94 µg/mL (≈ 297 µM) and the “IC50 LDL oxidation inhibition” value [4] was 97.76 ± 0.77 µg/mL (≈ 236 µM).
In the case of `CC[C@H](/C=C/[C@@H](C)[C@H]1CC[C@H]2[C@@H]3CC=C4C[C@@H](O)CC[C@]4(C)[C@H]3CC[C@]12C)C(C)C` [stigmasterol], the “inhibition of enzymes in the cholesterol biosynthetic pathway / cholesterol biosynthesis” value [1] is given as “inhibitory effects”, the IC50 [2, 10] is given as 303 µM and the IC50 [3, 11] is given as 182 µM. For the same molecule, the “IC50 LDL oxidation inhibition” value [4] was 50.01 ± 0.77 µg/mL (≈ 121 µM).
